Data set [1] in a line: Drug excretion in Sprague-Dawley rat urine at 5 mg/kg, po administered as single dose. The class given is ADME, organism-based. On the set-up: dose 5 mg/kg, route oral. The note with it: read-out: Drug excretion.
Data set [2] is described as follows: Drug excretion in Sprague-Dawley rat feces at 5 mg/kg, po administered as single dose. The class given is ADME, organism-based. On the set-up: dose 5 mg/kg, route oral. The following applies: faeces, read-out: Drug excretion.
The nature of data set [3]: Drug recovery in Sprague-Dawley rat at 5 mg/kg, po administered as single dose. The data set is classed as ADME, organism-based. On the set-up: dose 5 mg/kg, route oral. The following applies: in vivo, read-out: Drug recovery.
Data set [4] in a line: Drug excretion in beagle dog urine at 5 mg/kg, po administered as single dose. The data set is classed as ADME, organism-based, Canis lupus familiaris. On the set-up: dose 5 mg/kg, route oral. The following applies: read-out: Drug excretion.
Data set [5] is described as follows: Drug excretion in beagle dog feces at 5 mg/kg, po administered as single dose. The class given is ADME, organism-based, Canis lupus familiaris. Details: dose 5 mg/kg, route oral. The following applies: faeces, read-out: Drug excretion.
A short description of data set [6]: Drug recovery in beagle dog at 5 mg/kg, po administered as single dose. The class given is ADME, organism-based, Canis lupus familiaris. Details: dose 5 mg/kg, route oral. The note with it: in vivo, read-out: Drug recovery.
Data set [7] can be described thus: Drug excretion in human urine at […], po administered as single dose. The class given is ADME, organism-based. The following applies: read-out: Drug excretion. Details: route oral.
Data set [8] in a line: Drug excretion in human feces at […], po administered as single dose. The class given is ADME, organism-based. Details: route oral. The note with it: faeces, read-out: Drug excretion.
Data set [9] in a line: Drug recovery in human at […], po administered as single dose. The data set is classed as ADME, organism-based. The following applies: in vivo, read-out: Drug recovery. Details: route oral.
Data set [10] relates to Homo sapiens. Put plainly: Cmax in human at […], po administered as single dose. The following applies: in vivo. Details: route oral. The data set is classed as ADME, organism-based.
In data set [11] the test system is Homo sapiens. Nature of the data set: AUC (0 to 168 hrs) in human at […], po administered as single dose. On the set-up: time < 168 hr, route oral. The data set is classed as ADME, organism-based, Plasma. The following applies: in vivo.
In data set [12] the test system is Homo sapiens. Put plainly: AUC (0 to infinity) in human at […], po administered as single dose. The data set is classed as ADME, organism-based, Plasma. On the set-up: time infinity, route oral. The following applies: in vivo.
Data set [13] is described as follows: Drug metabolism in bile of bile duct-cannulated male Sprague-Dawley rat assessed as PF-00734200 level at 5 mg/kg, po administered as single dose by LC-MS/MS method. The data set is classed as ADME, organism-based. Details: dose 5 mg/kg, route oral. The note with it: in vivo.
A short description of data set [14]: Drug metabolism in bile of bile duct-cannulated female Sprague-Dawley rat assessed as PF-00734200 level at 5 mg/kg, po administered as single dose by LC-MS/MS method. The class given is ADME, organism-based. The note with it: in vivo. On the set-up: dose 5 mg/kg, route oral.
Data set [15] is described as follows: Drug recovery in bile of bile duct-cannulated Sprague-Dawley rat at 5 mg/kg, po administered as single dose by LC-MS/MS method. Details: dose 5 mg/kg, route oral. The class given is ADME, organism-based. The following applies: read-out: Drug recovery.

Regarding `O=C([C@@H]1C[C@H](N2CCN([14c]3ncccn3)CC2)CN1)N1CCC(F)(F)C1`, the dose excreted is 30.8% in [1]; 66% in [2]; 97.1% in data set [3]; 66.7% in data set [4]; 16.8% in [5]; 92.2% in [6]. The dose excreted worked out at 76.8% in [7], 10.4% in [8], 87.2% in [9] and 62.1% in data set [15]. Also, in the data set with Homo sapiens [10], the Cmax was 274 ng.Eq/ml. The AUC was determined as 2490 ng.Eq.hr/ml in the data set on Homo sapiens [11] and 2850 ng.Eq.hr/ml in the data set on Homo sapiens [12]. Besides, the Drug metabolism entry in data set [13] and in [14] was “metabolite_not_detected” each time.

The values above are taken from ChEMBL document CHEMBL3526145, “Metabolism, excretion, and pharmacokinetics of ((3,3-difluoropyrrolidin-1-yl)((2S,4S)-4-(4-(pyrimidin-2-yl)piperazin-1-yl)pyrrolidin-2-yl)methanone, a dipeptidyl peptidase inhibitor, in rat, dog and human” (Drug Metab Dispos, 2012).
